The source of these data is US9938299B2, “Glycosidase inhibitors and uses thereof” (MERCK SHARP & DOHME CORP., priority 2012, dated 2018).

The structures appear in SMILES notation.

One may read the Ki as a dissociation constant, usually derived from enzyme kinetics or from competition with a known ligand.

This test deals with T1, human O-GlcNAcase (Homo sapiens, UniProt O60502).
T1 sequence (O60502 1-916): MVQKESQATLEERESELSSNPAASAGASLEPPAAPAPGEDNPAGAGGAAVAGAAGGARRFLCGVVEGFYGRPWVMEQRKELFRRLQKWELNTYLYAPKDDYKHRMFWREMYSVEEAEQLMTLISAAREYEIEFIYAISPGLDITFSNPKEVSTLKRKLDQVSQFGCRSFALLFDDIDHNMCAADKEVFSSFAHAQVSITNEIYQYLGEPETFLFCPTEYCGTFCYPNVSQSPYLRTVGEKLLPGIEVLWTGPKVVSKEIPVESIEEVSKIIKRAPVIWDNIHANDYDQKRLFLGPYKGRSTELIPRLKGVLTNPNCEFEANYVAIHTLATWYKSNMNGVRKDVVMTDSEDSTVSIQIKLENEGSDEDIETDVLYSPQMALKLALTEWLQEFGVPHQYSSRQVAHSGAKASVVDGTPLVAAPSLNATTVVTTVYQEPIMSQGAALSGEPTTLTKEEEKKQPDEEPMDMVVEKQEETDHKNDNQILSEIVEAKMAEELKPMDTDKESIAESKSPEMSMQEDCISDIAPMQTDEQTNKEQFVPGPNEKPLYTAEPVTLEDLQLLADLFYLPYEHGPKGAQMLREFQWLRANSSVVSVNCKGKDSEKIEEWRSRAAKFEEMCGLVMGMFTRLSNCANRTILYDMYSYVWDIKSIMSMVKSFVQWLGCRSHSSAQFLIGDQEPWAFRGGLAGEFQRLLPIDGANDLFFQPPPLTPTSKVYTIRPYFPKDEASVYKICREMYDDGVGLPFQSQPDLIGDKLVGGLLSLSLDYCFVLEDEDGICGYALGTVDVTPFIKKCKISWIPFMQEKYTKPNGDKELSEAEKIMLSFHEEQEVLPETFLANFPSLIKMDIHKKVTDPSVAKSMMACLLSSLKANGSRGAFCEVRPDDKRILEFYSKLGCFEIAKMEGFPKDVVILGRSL
The test can be described thus: Determination of KI values for inhibition of O-GlcNAcase activity (fluorogenic 4-methylumbelliferyl GlcNAc substrate). In kind it is biochemical. Particulars: purified human O-GlcNAcase 0.7 nM, 2 mM substrate, pH 7.0, room temperature; Cheng-Prusoff; read-out: Ki. The procedure: Assay for Determination of […] for Inhibition of O-GlcNAcase Activity
Experimental procedure for kinetic analyses: Enzymatic reactions were carried out in a reaction containing 50 mM NaH2PO4, 100 mM NaCl and 0.1% BSA (pH 7.0) using 2 mM 4-Methylumbelliferyl N-acetyl-β-D-glucosaminide dihydrate (Sigma M2133) dissolved in ddH2O, as a substrate. The amount of purified human O-GlcNAcase enzyme used in the reaction was 0.7 nM. Test compound of varying concentrations was added to the enzyme prior to initiation of the reaction. The reaction was performed at room temperature in a 96-well plate and was initiated with the addition of substrate. […] The slope of product production was determined for each concentration of compound tested and plotted, using standard curve fitting algorithms for sigmoidal dose response curves. The values for a four parameter logistic curve fit of the data were determined.
As to `COc1ccc(CC[C@@H]([C@H]2O[C@@H]3SC(N(C)C)=N[C@@H]3[C@@H](O)[C@@H]2O)C(F)(F)F)cc1` (single isomer, unassigned) [Example 2], the inhibition constant (Ki) worked out at 1.6 nM.

Consider `COc1ccc(C/C=C(\[C@H]2O[C@@H]3SC(N(C)C)=N[C@@H]3[C@@H](O)[C@@H]2O)C(F)(F)F)cc1` (single isomer, unassigned) [Example 3], for which the inhibition constant (Ki) was 9.5 nM.

Take `COc1ccc(C/C=C(/[C@H]2O[C@@H]3SC(N(C)C)=N[C@@H]3[C@@H](O)[C@@H]2O)C(F)(F)F)cc1` (single isomer, unassigned) [Example 4]: the Ki amounted to 16.2 nM.

For `CNC1=N[C@@H]2[C@@H](O)[C@H](O)[C@@H]([C@H](O)CCc3ccc(OC)cc3)O[C@@H]2S1` (single isomer, unassigned) [Example 6], the Ki was determined as 139 nM.

Regarding `CNC1=N[C@@H]2[C@@H](O)[C@H](O)[C@@H]([C@@H](O)CCc3ccc(OC)cc3)O[C@@H]2S1` (single isomer, unassigned) [Example 7], the inhibition constant (Ki) is 1.2 nM.

On to `CNC1=N[C@@H]2[C@@H](O)[C@H](O)[C@@H]([C@](O)(CCc3ccc(OC)cc3)C(F)(F)F)O[C@@H]2S1` (single isomer, unassigned) [Example 8], for which the Ki worked out at 0.95 nM.

`CNC1=N[C@@H]2[C@@H](O)[C@H](O)[C@@H]([C@@](O)(CCc3ccc(OC)cc3)C(F)(F)F)O[C@@H]2S1` (single isomer, unassigned) [Example 9]: the Ki came out at 24 nM.

Take `CN(C)C1=N[C@@H]2[C@@H](O)[C@H](O)[C@@H](C(O)(CCc3ccccc3)C(F)(F)F)O[C@@H]2S1` (stereo in doubt) [Example 27, (3aR,5S,6S,7R,7aR)-2-(dimethylamino)-5-((S)-1,1,1-trifluoro-2-hydroxy-4-phenylbutan-2-yl)-5,6,7,7a-tetrahydro-3aH-pyrano[3,2-d]thiazole-6,7-diol]: the Ki is 0.92 nM.

Consider `CN(C)C1=N[C@@H]2[C@@H](O)[C@H](O)[C@@H]([C@@](O)(CCc3ccccc3)C(F)(F)F)O[C@@H]2S1` (stereo in doubt) [Example 28, (3aR,5S,6S,7R,7aR)-2-(dimethylamino)-5-(1,1,1-trifluoro-2-hydroxy-4-phenylbutan-2-yl)-5,6,7,7a-tetrahydro-3aH-pyrano[3,2-d]thiazole-6,7-diol], for which the Ki is 316 nM.

With `COc1ccc(CCC(O)([C@H]2O[C@@H]3SC(N(C)C)=N[C@@H]3[C@@H](O)[C@@H]2O)C(F)(F)F)cc1` (stereo in doubt) [Example 29, (3aR,5S,6S,7R,7aR)-2-(dimethylamino)-5-((S)-1,1,1-trifluoro-2-hydroxy-4-(4-methoxyphenyl)butan-2-yl)-5,6,7,7a-tetrahydro-3aH-pyrano[3,2-d]thiazole-6,7-diol], the Ki was determined as 1.1 nM.

Consider `COc1ccc(CC[C@H]([C@H]2O[C@@H]3SC(N(C)C)=N[C@@H]3[C@@H](O)[C@@H]2O)C(F)(F)F)cc1` [Example 1, (3aR,5R,6S,7R,7aR)-2-(dimethylamino)-5-((R)-1,1,1-trifluoro-4-(4-methoxyphenyl)butan-2-yI)-5,6,7,7a-tetrahydro-3aH-pyrano[3,2-d]thiazole-6,7-diol], for which the Ki came out at 109 nM.

In the case of `CCOC(=O)/C=C/[C@H]1O[C@@H]2SC(NC)=N[C@@H]2[C@@H](O)[C@@H]1O` [Example 5, (E)-ethyl 3-((3aR,5R,6S,7R,7aR)-6,7-dihydroxy-2-(methylamino)-5,6,7,7a-tetrahydro-3aH-pyrano[3,2-d]thiazol-5-yl)acrylate], the Ki worked out at 72 nM.

`CNC1=N[C@@H]2[C@@H](O)[C@H](O)[C@@H](C(F)(F)CCc3ccc(OC)cc3)O[C@@H]2S1` [Example 10, (3aR,5S,6S,7R,7aR)-5-(1,1-difluoro-3-(4-methoxyphenyl)propyl)-2-(methylamino)-5,6,7,7a-tetrahydro-3aH-pyrano[3,2-d]thiazole-6,7-diol]: the inhibition constant (Ki) stood at 69 nM.

Regarding `CN(C)C1=N[C@@H]2[C@@H](O)[C@H](O)[C@@H](CC#N)O[C@@H]2S1` [Example 11, 2-((3aR,5R,6S,7R,7aR)-2-(dimethylamino)-6,7-dihydroxy-5,6,7,7a-tetrahydro-3aH-pyrano[3,2-d]thiazol-5-yl)acetonitrile], the Ki came to 5.9 nM.

Take `CNC1=N[C@@H]2[C@@H](O)[C@H](O)[C@@H](CCC(=O)OC)O[C@@H]2S1` [Example 12, methyl 3-((3aR,5R,6S,7R,7aR)-6,7-dihydroxy-2-(methylamino)-5,6,7,7a-tetrahydro-3aH-pyrano[3,2-d]thiazol-5-yl)propanoate]: the Ki came to 22 nM.

For the compound `CNC(=O)CC[C@H]1O[C@@H]2SC(N(C)C)=N[C@@H]2[C@@H](O)[C@@H]1O` [Example 13, 3-((3aR,5R,6S,7R,7aR)-2-(dimethylamino)-6,7-dihydroxy-5,6,7,7a-tetrahydro-3aH-pyrano[3,2-d]thiazol-5-yl)-N-methylpropanamide], the inhibitory constant (Ki) came to 100 nM.

On to `C=C(C)[C@H]1O[C@@H]2SC(NC)=N[C@@H]2[C@@H](O)[C@@H]1O` [Example 14, (3aR,5R,6S,7R,7aR)-2-(methylamino)-5-(prop-1-en-2-yl)-5,6,7,7a-tetrahydro-3aH-pyrano[3,2-d]thiazole-6,7-diol 2,2,2-trifluoroacetate], for which the Ki was found to be 10.1 nM.

Consider `C=C([C@H]1O[C@@H]2SC(NC)=N[C@@H]2[C@@H](O)[C@@H]1O)C(F)(F)F` [Example 15, (3aR,5R,6S,7R,7aR)-2-(methylamino)-5-(3,3,3-trifluoroprop-1-en-2-yl)-5,6,7,7a-tetrahydro-3aH-pyrano[3,2-d]thiazole-6,7-diol], for which the Ki amounted to 63 nM.

Regarding `C=C(C)[C@H]1O[C@@H]2SC(N(C)C)=N[C@@H]2[C@@H](O)[C@@H]1O` [Example 16, (3aR,5R,6S,7R,7aR)-2-(dimethylamino)-5-(prop-1-en-2-yl)-5,6,7,7a-tetrahydro-3aH-pyrano[3,2-d]thiazole-6,7-diol], the Ki turned out to be 21 nM.

On to `CNC1=N[C@@H]2[C@@H](O)[C@H](O)[C@@H]([C@@H](CCc3ccc(OC)cc3)C(F)(F)F)O[C@@H]2S1` [Example 17, (3aR,5R,65,7R,7aR)-2-(methylamino)-5-((R)-1,1,1-trifluoro-4-(4-methoxyphenyl)butan-2-yl)-5,6,7,7a-tetrahydro-3aH-pyrano[3,2-d]thiazole-6,7-diol], for which the Ki amounted to 139 nM.

For `CNC1=N[C@@H]2[C@@H](O)[C@H](O)[C@@H]([C@H](CCc3ccc(OC)cc3)C(F)(F)F)O[C@@H]2S1` [Example 18, (3aR,5R,65,7R,7aR)-2-(methylamino)-5-(1,1,1-trifluoro-4-(4-methoxyphenyl)butan-2-yl)-5,6,7,7a-tetrahydro-3aH-pyrano[3,2-d]thiazole-6,7-diol], the Ki came out at 1.1 nM.

For `CN(C)C1=N[C@@H]2[C@@H](O)[C@H](O)[C@@H](C(=CCc3ccccc3)C(F)(F)F)O[C@@H]2S1` [Example 19, (3aR,5R,6S,7R,7aR)-2-(dimethylamino)-5-(1,1,1-trifluoro-4-phenylbut-2-en-2-yl)-5,6,7,7a-tetrahydro-3aH-pyrano[3,2-d]thiazole-6,7-diol], the Ki was determined as 20 nM.

For `CN(C)C1=N[C@@H]2[C@@H](O)[C@H](O)[C@@H]([C@H](O)Cc3ccccc3)O[C@@H]2S1` [Example 20, (3aR,5R,6S,7R,7aR)-2-(dimethylamino)-5-((R)-1-hydroxy-2-phenylethyl)-5,6,7,7a-tetrahydro-3aH-pyrano[3,2-d]thiazole-6,7-diol], the Ki is 736 nM.

Turning to `CN(C)C1=N[C@@H]2[C@@H](O)[C@H](O)[C@@H]([C@@H](O)Cc3ccccc3)O[C@@H]2S1` [Example 21, (3aR,5R,6S,7R,7aR)-2-(dimethylamino)-5-((S)-1-hydroxy-2-phenylethyl)-5,6,7,7a-tetrahydro-3aH-pyrano[3,2-d]thiazole-6,7-diol], the Ki is 25.6 nM.

Take `COc1ccc(CC[C@@H](O)[C@H]2O[C@@H]3SC(N(C)C)=N[C@@H]3[C@@H](O)[C@@H]2O)cc1` [Example 22, (3aR,5R,6S,7R,7aR)-2-(dimethylamino)-5-((R)-1-hydroxy-3-(4-methoxyphenyl)propyl)-5,6,7,7a-tetrahydro-3aH-pyrano[3,2-d]thiazole-6,7-diol]: the Ki turned out to be 505 nM.
